In ChEMBL document CHEMBL1129674, “Design, synthesis, and biological activity of a potent inhibitor of the neuropeptidase N-acetylated alpha-linked acidic dipeptidase” (J Med Chem, 1996):

Key:
Assay type in all cases: functional
Rattus norvegicus [1] = organism: Rattus norvegicus; assay: In vitro effect KCL-Evoked Giutamate at 10.0 nM
Rattus norvegicus [2] = organism: Rattus norvegicus; assay: In vitro effect KCL-Evoked Glutamate at 1.0 nM
Rattus norvegicus [3] = organism: Rattus norvegicus; assay: In vitro effect of compound on Basal Glutamate Efflux at 1.0 nM
Rattus norvegicus [4] = organism: Rattus norvegicus; assay: In vitro effect KCL-Evoked Giutamate at 0.1 nM
Rattus norvegicus [5] = organism: Rattus norvegicus; assay: In vitro effect of compound on Basal Glutamate Efflux at 10.0 nM
Rattus norvegicus [6] = organism: Rattus norvegicus; assay: In vitro effect of compound on Basal Glutamate Efflux at 0.1 nM

Question: Which results are given for O=C(O)CCC(CP(=O)(O)O)C(=O)O (stereo unspecified)?
Answer: Release (Rattus norvegicus [1]): 437; Release (Rattus norvegicus [2]): 368; Efflux (Rattus norvegicus [3]): 137%; Release (Rattus norvegicus [4]): 316; Efflux (Rattus norvegicus [5]): 167%; Efflux (Rattus norvegicus [6]): 151%
